# Values quoted from earlier work, collected in US20220361462A1, “ANIMAL MODEL FOR NEURODEGENERATIVE DISORDERS” (NEURO-BIO LTD, priority 2019, published 2022).
# No end group written: not given here.
# Test system: cell lines
# Conditions: previously shown by the inventors
substance,measurement,value
"NBP-14: candidate modulator of the α7-nAChR, the cyclized form of T14, cyclic SEQ ID No:4 (AEFHRWSSYMVHWK; not fully specified; also: cyclised, mode not given here; listed as Homo sapiens)",effect on AD-like phenotype promoted by AChE-derived peptide on cell lines,blocked
